Test results: PMC4505066, “Insights into the Recruitment of Class IIa Histone Deacetylases (HDACs) to the SMRT/NCoR Transcriptional Repression Complex” (The Journal of Biological Chemistry, 2015)
Read-outs that look alike come from different tables or passages of the source. No end group written: not given here.

Columns and labels:
[1] = molecular target: T1, HDAC4 catalytic domain (wild type) (Homo sapiens, UniProt P56524); experiment: Fluorescence anisotropy binding of BODIPY-TMR labeled GSI motif peptides to HDAC4
T1 construct: we purified the recombinant catalytic domains of HDACs 4, 5, 7, and 9; hexa-histidine tag (N, cleaved yes); S-tag (N, cleaved yes); made in house; host or cells: Escherichia coli Rosetta (pET30)
Experimental: Immediately prior to the fluorescence anisotropy assays the HDACs were concentrated and buffer exchanged into 1× PBS, 0.5 mM Tris(2-carboxyethyl)-phosphine and the protein concentration was determined by A280 in 6 M guanidine HCl. Protein was dispensed into 96-well black plates prior to a 2-fold serial dilution in reaction buffer (1× PBS, 0.01% Triton X-100, 0.1 mg/ml of BSA). Inhibitors were preincubated with HDACs for 30 min at a 2:1 ratio before serial dilution. Labeled peptide was added to a final concentration of 1 μM in a 50-μl reaction volume. […] Data were analyzed using GraphPad Prism, assuming non-linear fit with one-site binding to fulfill the equation y = Bmax × x/(Kd + x).

HDAC5 catalytic domain = molecular target: T2, HDAC5 catalytic domain (Homo sapiens, UniProt Q9UQL6); experiment: Fluorescence anisotropy binding of labeled GSI peptide to HDAC5; settings: Fig. 2B, labeled wild type peptide 1 μM
T2 construct: we purified the recombinant catalytic domains of HDACs 4, 5, 7, and 9; hexa-histidine tag (N, cleaved yes); S-tag (N, cleaved yes); made in house; host or cells: Escherichia coli Rosetta (as for HDAC4)
Experimental: (§1) Wild type peptide was obtained from Biomatik. Mutant peptides were synthesized in house using a CEM microwave peptide synthesizer. Peptides for use in fluorescence anisotropy assays were synthesized with an extra N-terminal cysteine.
(§2) Peptides were coupled to BODIPY-TMR by incubation in 18 MΩ water at a 5:1 molar ratio for 2 h at room temperature with continual stirring. Following incubation, buffer was exchanged into 1× PBS, 0.5 mM Tris(2-carboxyethyl)phosphine using a PD-10 column (GE Healthcare). Labeled peptides were concentrated using an Amicon centrifugal concentrator. Immediately prior to the fluorescence anisotropy assays the HDACs were concentrated and buffer exchanged into 1× PBS, 0.5 mM Tris(2-carboxyethyl)-phosphine and the protein concentration was determined by A280 in 6 M guanidine HCl. Protein was dispensed into 96-well black plates prior to a 2-fold serial dilution in reaction buffer (1× PBS, 0.01% Triton X-100, 0.1 mg/ml of BSA). Inhibitors were preincubated with HDACs for 30 min at a 2:1 ratio before serial dilution. Labeled peptide was added to a final concentration of 1 μM in a 50-μl reaction volume. Measurements were recorded using an excitation wavelength of 531 nm and emission wavelength of 595 nm. Data were analyzed using GraphPad Prism, assuming non-linear fit with one-site binding to fulfill the equation y = Bmax × x/(Kd + x).

HDAC7 catalytic domain = molecular target: T3, HDAC7 catalytic domain (Homo sapiens, UniProt Q8WUI4); experiment: Fluorescence anisotropy binding of labeled GSI peptide to HDAC7; settings: Fig. 2B, labeled wild type peptide 1 μM
T3 construct: we purified the recombinant catalytic domains of HDACs 4, 5, 7, and 9; hexa-histidine tag (N, cleaved yes); S-tag (N, cleaved yes); made in house; host or cells: Escherichia coli Rosetta (as for HDAC4)
T3 sequence (Q8WUI4 512-865 limits assumed): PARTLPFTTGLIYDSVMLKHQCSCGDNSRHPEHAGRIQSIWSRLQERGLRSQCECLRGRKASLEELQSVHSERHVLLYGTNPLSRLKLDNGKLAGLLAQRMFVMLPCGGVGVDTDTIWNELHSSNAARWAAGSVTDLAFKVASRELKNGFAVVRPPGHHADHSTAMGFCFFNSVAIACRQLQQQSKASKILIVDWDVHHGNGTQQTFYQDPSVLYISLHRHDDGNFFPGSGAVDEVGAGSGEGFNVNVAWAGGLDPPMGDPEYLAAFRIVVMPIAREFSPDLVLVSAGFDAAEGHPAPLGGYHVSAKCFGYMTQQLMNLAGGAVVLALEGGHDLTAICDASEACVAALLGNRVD
Experimental: as §1, §2

HDAC9 catalytic domain = molecular target: T4, HDAC9 catalytic domain (Homo sapiens, UniProt Q9UKV0); experiment: Fluorescence anisotropy binding of labeled GSI peptide to HDAC9; settings: Fig. 2B, labeled wild type peptide 1 μM
T4 construct: we purified the recombinant catalytic domains of HDACs 4, 5, 7, and 9; hexa-histidine tag (N, cleaved yes); S-tag (N, cleaved yes); made in house; host or cells: Escherichia coli Rosetta (as for HDAC4)
Experimental: as §1, §2

full-length HDAC8 = molecular target: T5, full-length HDAC8 (Homo sapiens, UniProt Q9BY41); experiment: Fluorescence anisotropy binding of labeled GSI peptide to HDAC8; settings: Fig. 2B, class I HDAC8 control, labeled wild type peptide 1 μM
T5 construct: along with full-length HDAC8 as an intrinsically active class I HDAC control; made in house
T5 sequence (Q9BY41 1-377): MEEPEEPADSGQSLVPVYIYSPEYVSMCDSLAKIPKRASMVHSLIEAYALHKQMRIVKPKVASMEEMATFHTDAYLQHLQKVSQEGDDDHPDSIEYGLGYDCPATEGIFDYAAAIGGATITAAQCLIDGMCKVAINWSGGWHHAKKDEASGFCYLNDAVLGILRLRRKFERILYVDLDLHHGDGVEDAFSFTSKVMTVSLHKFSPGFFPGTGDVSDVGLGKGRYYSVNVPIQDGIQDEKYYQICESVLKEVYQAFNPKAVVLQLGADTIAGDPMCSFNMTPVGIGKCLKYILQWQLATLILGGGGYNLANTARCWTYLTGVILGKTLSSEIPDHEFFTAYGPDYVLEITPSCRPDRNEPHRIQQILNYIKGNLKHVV
Experimental: as §1, §2

HDAC4cd C667A = molecular target: T6, HDAC4cd C667A (Homo sapiens, UniProt P56524, C667A); experiment: Fluorescence anisotropy binding of GSI peptide to HDAC4 C667A mutant; settings: Fig. 3C, zinc chelating residue mutant
T6 construct: we purified the recombinant catalytic domains of HDACs 4, 5, 7, and 9; hexa-histidine tag (N, cleaved yes); S-tag (N, cleaved yes); made in house; host or cells: Escherichia coli Rosetta (pET30)
Experimental: as §2

HDAC4cd H675A = molecular target: T7, HDAC4cd H675A (Homo sapiens, UniProt P56524, H675A); experiment: Fluorescence anisotropy binding of GSI peptide to HDAC4 H675A mutant; settings: Fig. 3C, zinc chelating residue mutant
T7 construct: we purified the recombinant catalytic domains of HDACs 4, 5, 7, and 9; hexa-histidine tag (N, cleaved yes); S-tag (N, cleaved yes); made in house; host or cells: Escherichia coli Rosetta (pET30)
Experimental: as §2

HDAC4cd C751A = molecular target: T8, HDAC4cd C751A (Homo sapiens, UniProt P56524, C751A); experiment: Fluorescence anisotropy binding of GSI peptide to HDAC4 C751A mutant; settings: Fig. 3C, zinc chelating residue mutant
T8 construct: we purified the recombinant catalytic domains of HDACs 4, 5, 7, and 9; hexa-histidine tag (N, cleaved yes); S-tag (N, cleaved yes); made in house; host or cells: Escherichia coli Rosetta (pET30)
Experimental: as §2

[2] = molecular target: T9, H976Y gain-of-function (GOF) HDAC4 catalytic domain (Homo sapiens, UniProt P56524, H976Y); experiment: Fluorescence anisotropy binding of GSI peptide to H976Y gain-of-function HDAC4
T9 construct: the H976Y gain-of-function (GOF) HDAC4 catalytic domain; hexa-histidine tag (N, cleaved yes); S-tag (N, cleaved yes); made in house; host or cells: Escherichia coli Rosetta (pET30)
T9 sequence (P56524 655-1084 H976Y limits assumed): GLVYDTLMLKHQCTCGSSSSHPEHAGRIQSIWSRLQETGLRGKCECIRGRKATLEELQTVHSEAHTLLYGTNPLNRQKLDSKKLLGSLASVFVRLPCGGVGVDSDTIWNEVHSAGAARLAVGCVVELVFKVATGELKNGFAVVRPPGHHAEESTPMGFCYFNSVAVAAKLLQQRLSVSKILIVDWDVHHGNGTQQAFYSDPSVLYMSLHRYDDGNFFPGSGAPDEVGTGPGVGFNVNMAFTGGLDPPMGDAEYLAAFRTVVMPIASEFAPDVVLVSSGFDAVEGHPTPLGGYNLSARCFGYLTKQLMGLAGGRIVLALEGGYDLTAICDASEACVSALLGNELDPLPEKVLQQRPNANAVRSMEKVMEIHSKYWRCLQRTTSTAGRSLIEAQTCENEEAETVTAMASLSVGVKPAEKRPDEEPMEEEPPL
Experimental: Peptides were coupled to BODIPY-TMR by incubation in 18 MΩ water at a 5:1 molar ratio for 2 h at room temperature with continual stirring. Following incubation, buffer was exchanged into 1× PBS, 0.5 mM Tris(2-carboxyethyl)phosphine using a PD-10 column (GE Healthcare). Labeled peptides were concentrated using an Amicon centrifugal concentrator. Immediately prior to the fluorescence anisotropy assays the HDACs were concentrated and buffer exchanged into 1× PBS, 0.5 mM Tris(2-carboxyethyl)-phosphine and the protein concentration was determined by A280 in 6 M guanidine HCl. Protein was dispensed into 96-well black plates prior to a 2-fold serial dilution in reaction buffer (1× PBS, 0.01% Triton X-100, 0.1 mg/ml of BSA). Inhibitors were preincubated with HDACs for 30 min at a 2:1 ratio before serial dilution. Labeled peptide was added to a final concentration of 1 μM in a 50-μl reaction volume. […] Data were analyzed using GraphPad Prism, assuming non-linear fit with one-site binding to fulfill the equation y = Bmax × x/(Kd + x).

[3] = Fig. 2A, fluorescence anisotropy, BODIPY-TMR labeled peptide 1 μM, HDAC4 2-fold serial dilution, one-site binding fit, read-out: Kd

T1 sequence (P56524 655-1084 limits assumed): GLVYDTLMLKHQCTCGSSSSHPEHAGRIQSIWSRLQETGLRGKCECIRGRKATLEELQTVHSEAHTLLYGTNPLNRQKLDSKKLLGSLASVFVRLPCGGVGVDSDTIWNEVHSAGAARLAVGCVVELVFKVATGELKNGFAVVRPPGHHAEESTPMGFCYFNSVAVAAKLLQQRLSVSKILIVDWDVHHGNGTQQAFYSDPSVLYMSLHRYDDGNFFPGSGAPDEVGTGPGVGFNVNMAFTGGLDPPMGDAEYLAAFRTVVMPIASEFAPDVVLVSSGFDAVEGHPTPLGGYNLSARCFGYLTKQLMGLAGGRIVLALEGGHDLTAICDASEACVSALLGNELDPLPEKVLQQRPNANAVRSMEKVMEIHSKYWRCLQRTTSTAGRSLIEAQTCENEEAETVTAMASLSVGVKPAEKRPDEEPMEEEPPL
T2 sequence (Q9UQL6 684-1028 limits assumed, species assumed): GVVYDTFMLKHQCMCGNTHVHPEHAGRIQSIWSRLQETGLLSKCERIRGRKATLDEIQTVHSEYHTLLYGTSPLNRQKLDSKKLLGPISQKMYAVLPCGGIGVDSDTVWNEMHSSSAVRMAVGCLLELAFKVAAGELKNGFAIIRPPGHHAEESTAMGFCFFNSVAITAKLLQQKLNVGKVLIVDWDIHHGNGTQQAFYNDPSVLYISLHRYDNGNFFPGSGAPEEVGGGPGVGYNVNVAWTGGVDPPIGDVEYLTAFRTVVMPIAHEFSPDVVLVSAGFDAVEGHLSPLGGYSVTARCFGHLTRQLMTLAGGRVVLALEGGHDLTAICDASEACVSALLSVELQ
T4 sequence (Q9UKV0 631-978 limits assumed, species assumed): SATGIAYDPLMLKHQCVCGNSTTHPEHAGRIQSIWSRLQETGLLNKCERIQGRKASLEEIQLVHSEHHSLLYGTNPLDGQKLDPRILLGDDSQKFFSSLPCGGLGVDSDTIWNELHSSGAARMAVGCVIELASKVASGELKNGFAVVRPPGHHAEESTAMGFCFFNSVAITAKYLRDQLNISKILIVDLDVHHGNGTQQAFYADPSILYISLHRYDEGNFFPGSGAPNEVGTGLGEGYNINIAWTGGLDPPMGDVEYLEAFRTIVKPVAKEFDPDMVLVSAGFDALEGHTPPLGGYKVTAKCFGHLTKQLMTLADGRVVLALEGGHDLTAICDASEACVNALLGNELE
T7 sequence (P56524 655-1084 H675A limits assumed): as the sequence (P56524 655-1084 limits assumed) above, with H21A counted along it
T6 sequence (P56524 655-1084 C667A limits assumed): as the sequence (P56524 655-1084 limits assumed) above, with C13A counted along it
T8 sequence (P56524 655-1084 C751A limits assumed): as the sequence (P56524 655-1084 limits assumed) above, with C97A counted along it

CC[C@H](C)[C@H](NC(=O)[C@H](CO)NC(=O)CNC(=O)[C@H](CCC(=O)O)NC(=O)[C@H](CCCCN)NC(=O)[C@H](CC(C)C)NC(=O)[C@@H]1CCCN1C(=O)[C@H](CCCNC(=N)N)NC(=O)[C@@H]1CCCN1C(=O)[C@@H](N)CS)C(=O)N[C@H](C(=O)N[C@@H](CCC(N)=O)C(=O)NCC(=O)N[C@H](C(=O)N1CCC[C@H]1C(=O)N[C@@H](CC(C)C)C(=O)N[C@@H](CCCCN)C(=O)N[C@@H](Cc1ccc(O)cc1)C(=O)N[C@@H](CC(=O)O)C(=O)N[C@H](C(=O)NCC(=O)O)[C@@H](C)O)[C@@H](C)O)[C@@H](C)O [WT]
Kd ([1]; Fig. 4A, wild type HDAC4 catalytic domain, DMSO, read-out: WT Kd): 3.22 ± 0.2 µM
Kd ([1]; Fig. 4A, wild type HDAC4 catalytic domain, No Inhibitor, read-out: WT Kd): 4.73 ± 0.31 µM
Kd (HDAC5 catalytic domain): 4.24 ± 0.59 µM
Kd (HDAC7 catalytic domain): 4.44 ± 0.44 µM
Kd (HDAC9 catalytic domain): 8.34 ± 1.07 µM
Kd (full-length HDAC8): no interaction
Kd (full-length HDAC8; read-out: Kd): > 1000 µM
Kd (HDAC4cd C667A): > 1000 µM
Kd (HDAC4cd H675A): > 1000 µM
Kd (HDAC4cd C751A): > 1000 µM
Kd ([2]; Fig. 4A, H976Y GOF HDAC4 catalytic domain, DMSO, read-out: GOF Kd): 2.94 ± 0.15 µM
Kd ([2]; Fig. 4A, H976Y GOF HDAC4 catalytic domain, No Inhibitor, read-out: GOF Kd): 1.76 ± 0.18 µM

CCCC(CCC)C(=O)O [Valproic Acid, valproic acid, reference compound]
Kd ([1]; read-out: WT Kd of the GSI peptide in the presence of the HDAC inhibitor): 3.38 ± 0.24 µM
Kd ([2]; read-out: GOF Kd of the GSI peptide in the presence of the HDAC inhibitor): 2.62 ± 0.18 µM

CPRPLKEGSITAGTPLKYDTG [Q5A]
Kd [1, 3]: 5.47 ± 0.57 µM

CPRPLKEGSITQGTALKYDTG [P8A]
Kd [1, 3]: 47 ± 12.3 µM

CPRPLKEGSITEGTPLKYDTG [Q5E]
Kd [1, 3]: 17.7 ± 1.4 µM

CPRPLKEGSIVQGTPLKYDTG [T4V]
Kd [1, 3]: 16.9 ± 8.73 µM

CCCC(=O)[O-].[Na+] [Sodium Butyrate, sodium butyrate, reference compound]
Kd ([1]; Fig. 4A, wild type HDAC4 catalytic domain preincubated 30 min with 2-fold molar excess of the named inhibitor, Kd is that of the labeled GSI peptide, read-out: WT Kd of the GSI peptide in the presence of the HDAC inhibitor): 4.61 ± 0.26 µM
Kd ([2]; Fig. 4A, H976Y GOF HDAC4 catalytic domain preincubated 30 min with 2-fold molar excess of the named inhibitor, Kd is that of the labeled GSI peptide, read-out: GOF Kd of the GSI peptide in the presence of the HDAC inhibitor): 2.53 ± 0.24 µM

CPRPLKEGSIAQGTPLKYDTG [T4A]
Kd [1, 3]: 14.4 ± 4.26 µM

O=C(CCCCCCC(=O)Nc1ccccc1)NO [SAHA, suberoylanilide hydroxamic acid, reference compound]
maximum polarization of GSI peptide binding in the presence of inhibitor ([1]; wild type HDAC4, 2-fold molar excess of inhibitor): lower maximum polarization
